Patent US20110200624A1, “NOVEL PEPTIDES FOR USE IN TRANSFECTION” (MOLECULAR TRANSFER, INC., priority 2008, published 2011)

Tests used:
Experiment in all cases: Transfection with β-galactosidase reporter plasmid pCMVSPORT-β-gal, β-gal activity (ONPG)
Format in all cases: cell-based
[1] = tested on: PC12; conditions: PC12 cells; DMS lipid (1:1 DOPE), 1.0 μg plasmid DNA, 1.0 ug peptide; β-gal activity OD 405 nm
[2] = tested on: HepG2; conditions: HepG2 cells; DMS lipid (1:1 DOPE), 1.0 μg plasmid DNA, 1.0 ug peptide; β-gal activity OD 405 nm
Description: (§1) Transfection of, NIH3T3, HepG2, Human Fibroblast, Jurkat and Cos-7 and with β-galactosidase reporter plasmid pCMV[…]SPORT-β-gal was carried out as follows:
(§2) Cells were plated in 96-well plates with 100 μl of media containing 10% fetal calf serum the day before transfection such that a desired confluency (70%-95%) was achieved the following day. The following day DMS lipid (1:1 DOPE) and DNA/peptide were mixed in Opti-MEM to form DNA/lipid/peptide complexes. Complexes were formed by adding various amounts of lipid (1-6 μl) to 100 μl of Opti-MEM. Plasmid DNA (1.0 μg) was added to 100 μl Opti-MEM then 1.0 ug of each peptide was added to the DNA mixture and incubated for 10 minutes. The DNA/peptide and lipids solutions were then mixed to form DNA/peptide/lipid complexes. The complexes were incubated for an additional 15 minutes. After incubation 20 μl of each of the resulting complexes was added directly to the cells in 10% serum. Cells were incubated for an additional 16-24 hours to allow expression of the plasmid. Medium was removed and the cells were lysed in 100-200 μl of lysis buffer. The lysates (20 μl) were assayed for β-gal activity using the enzymatic substrate ONPG. Total activity was determined by reading the OD at 405 nm using a Bio-Rad Benchmark Microplate Spectrophotometer.

[3] = tested on: Jurkat; conditions: Jurkat cells; DMS lipid (1:1 DOPE), 1.0 μg plasmid DNA, 1.0 ug peptide; β-gal activity OD 405 nm
Description: as §1, §2

[4] = tested on: Human Fibroblast; conditions: DMS lipid (1:1 DOPE), 1.0 μg plasmid DNA, 1.0 ug peptide, β-gal activity OD 405 nm
Description: as §1, §2

[5] = tested on: NIH 3T3; conditions: NIH 3T3 cells; DMS lipid (1:1 DOPE), 1.0 μg plasmid DNA, 1.0 ug peptide; β-gal activity OD 405 nm
Description: as §1, §2

Fold Ehancement over Lipid Alone [1]	Fold Ehancement over Lipid Alone [2]	Fold Ehancement over Lipid Alone [3]	Fold Ehancement over Lipid Alone [4]	Fold Ehancement over Lipid Alone [5]	Substance
2.5 Fold	1.2 Fold	4.75 Fold	11.7 Fold	1.65 Fold	(K)16VELDSFDY [Peptide #4]
2.09 Fold	1.3 Fold	4.8 Fold	14.5 Fold	0.89 Fold	(K)16NSRDSSGIQNV [Peptide #2]
1.6 Fold	2 Fold	1.28 Fold	12 Fold	2.5 Fold	(K)16DYYCAAWDDSLNGYSVF [Peptide #5]
0.91 Fold	3.3 Fold	1.47 Fold	29 Fold	1.46 Fold	(K)16YYCLQSMEDPYTFGG [Peptide #7]
1.8 Fold	0.97 Fold	4.56 Fold	3.7 Fold	1.7 Fold	(K)16YYCDIRLRDP [Peptide #1]
0.37 Fold	1.6 Fold	1 Fold	19.9 Fold	1.86 Fold	(K)16YYCARSDGNYGYYYALDYDY [Peptide #8]
1.4 Fold	2.5 Fold	2 Fold	22.7 Fold	2.1 Fold	(K)16YYCQQSYSTPWTFGQGTK [Peptide #10]

Substance	Fold Ehancement over Lipid Alone [1]	Fold Ehancement over Lipid Alone [2]	Fold Ehancement over Lipid Alone [3]	Fold Ehancement over Lipid Alone [4]	Fold Ehancement over Lipid Alone [5]
(K)16AARSPSYYRYDYGPYYAMDYD [Peptide #9]	2.68 Fold	4.25 Fold	5.78 Fold	21.9 Fold	2.17 Fold
(K)16AAWDDSLGI [Peptide #3]	2.88 Fold	1.9 Fold	4.5 Fold	12.9 Fold	1.5 Fold
(K)16YYCQQRSSYPYTFGG [Peptide #6]	1.13 Fold	4.2 Fold	1.75 Fold	34 Fold	1.93 Fold
